Series [1] deals with T1, S-phase kinase-associated protein 2/Cyclin-dependent kinases regulatory subunit 1/S-phase kinase-associated protein 1 (Homo sapiens, UniProt Q13309). Description: Inhibition of GST-tagged Skp2/Skp1 (unknown origin)/His6-tagged Cks1 (unknown origin) interaction by AlphaScreen assay. Format: protein assay. (Alpha assays give light when donor and acceptor beads are brought close together.)

The subject of series [2] is PC-3. Description: Upregulation of p27 level in human PC-3 cells at 20 uM incubated for 48 hrs by Western blot analysis. Format: functional, cell-based. (A western blot detects proteins with antibodies after separation by electrophoresis.)
The test system of series [3] is MGC-803. Description: Downregulation of Skp2 level in human MGC-803 cells at 20 uM incubated for 48 hrs by Western blot analysis. Format: functional, cell-based.
The target in series [4] is T1, S-phase kinase-associated protein 2/Cyclin-dependent kinases regulatory subunit 1/S-phase kinase-associated protein 1. Nature of the series: Inhibition of GST-tagged Skp2/Skp1 (unknown origin)/His6-tagged Cks1 (unknown origin) interaction preincubated with Skp2/Skp1 for 10 mins followed by Cks1 addition measured after 20 mins by HTRF assay. In kind it is protein assay.

The subject of series [5] is PC-3. Description: Induction of cell cycle arrest in human PC-3 cells assessed as accumulation of cells at S phase at 20 uM incubated for 48 hrs by flow cytometry (reference value: 22.44 %). Format: functional. In general terms: Flow cytometry measures light scatter and fluorescence of single cells or particles in a stream.
In series [6] the test system is PC-3. Description: Induction of apoptosis in human PC-3 cells assessed as early apoptotic cells at 20 uM incubated for 48 hrs by annexin V-FITC/PI staining based flow cytometry (reference value: 0.85 %). In kind it is functional.
For series [7], the system named is PC-3. Nature of the series: Induction of cell cycle arrest in human PC-3 cells assessed as accumulation of cells at G1 phase at 20 uM incubated for 48 hrs by flow cytometry (reference value: 57.39 %). Format: functional.
The subject of series [8] is MGC-803. Nature of the series: Induction of apoptosis in human MGC-803 cells assessed as necrotic cells at 20 uM incubated for 48 hrs by annexin V-FITC/PI staining based flow cytometry (reference value: 0.89 %). Format: functional.
Series [9] relates to PC-3. Nature of the series: Induction of cell cycle arrest in human PC-3 cells assessed as accumulation of cells at G2 phase at 20 uM incubated for 48 hrs by flow cytometry (reference value: 22.59 %). In kind it is functional.
The test system of series [10] is MGC-803. Description: Induction of apoptosis in human MGC-803 cells assessed as viable cells at 20 uM incubated for 48 hrs by annexin V-FITC/PI staining based flow cytometry (reference value: 98 %). Particulars: read-out: Activity. In kind it is functional.
The subject of series [11] is PC-3. Description: Induction of apoptosis in human PC-3 cells assessed as viable cells at 20 uM incubated for 48 hrs by annexin V-FITC/PI staining based flow cytometry (reference value: 98.6 %). In kind it is functional. As to conditions: read-out: Activity.
Series [12] relates to PC-3. Description: Induction of apoptosis in human PC-3 cells assessed as late apoptotic cells at 20 uM incubated for 48 hrs by annexin V-FITC/PI staining based flow cytometry (reference value: 0.45 %). Format: functional.
In series [13] the test system is MGC-803. Nature of the series: Induction of cell cycle arrest in human MGC-803 cells assessed as accumulation of cells at G2 phase at 20 uM incubated for 48 hrs by flow cytometry (reference value: 21.35 %). Format: functional.
Series [14] deals with MGC-803. Description: Upregulation of p27 level in human MGC-803 cells at 20 uM incubated for 48 hrs by Western blot analysis. Format: functional, cell-based.
For series [15], the system named is PC-3. Nature of the series: Upregulation of p21 level in human PC-3 cells at 20 uM incubated for 48 hrs by Western blot analysis. Format: functional, cell-based.
Series [16] deals with PC-3. Nature of the series: Downregulation of Skp2 level in human PC-3 cells at 20 uM incubated for 48 hrs by Western blot analysis. In kind it is functional, cell-based.
Series [17] deals with MGC-803. Description: Upregulation of p21 level in human MGC-803 cells at 20 uM incubated for 48 hrs by Western blot analysis. Format: functional, cell-based.
Series [18] concerns MGC-803. Description: Induction of cell cycle arrest in human MGC-803 cells assessed as accumulation of cells at G1 phase at 20 uM incubated for 48 hrs by flow cytometry (reference value: 54.46 %). In kind it is functional.
Series [19] deals with MGC-803. Nature of the series: Induction of cell cycle arrest in human MGC-803 cells assessed as accumulation of cells at S phase at 20 uM incubated for 48 hrs by flow cytometry (reference value: 22.72 %). Format: functional.
The test system of series [20] is MGC-803. Nature of the series: Induction of apoptosis in human MGC-803 cells assessed as late apoptotic cells at 20 uM incubated for 48 hrs by annexin V-FITC/PI staining based flow cytometry (reference value: 0.95 %). In kind it is functional.
In series [21] the test system is MGC-803. Nature of the series: Induction of apoptosis in human MGC-803 cells assessed as early apoptotic cells at 20 uM incubated for 48 hrs by annexin V-FITC/PI staining based flow cytometry (reference value: 0.21 %). In kind it is functional.
Series [22] deals with PC-3. Description: Induction of apoptosis in human PC-3 cells assessed as necrotic cells at 20 uM incubated for 48 hrs by annexin V-FITC/PI staining based flow cytometry (reference value: 0.14 %). In kind it is functional.
Another series has as its system NCI-H1299. Nature of the series: Antitumor activity against human NCI-H1299 cells assessed as cell growth inhibition incubated for 72 hrs by MTT assay. Format: functional, cell-based. As to conditions: NCI-H1299, 72 h.
Series [23] is described as follows: Antitumor activity against human EC1 cells assessed as cell growth inhibition incubated for 72 hrs by MTT assay. As to conditions: EC1, 72 h. Format: functional, cell-based.
The next series relates to MCF7. Nature of the series: Antitumor activity against human MCF7 cells assessed as cell growth inhibition incubated for 72 hrs by MTT assay. Particulars: MCF7, 72 h. Format: functional, cell-based.
The test system of series [24] is PC-3. Description: Antitumor activity against human PC-3 cells assessed as cell growth inhibition incubated for 72 hrs by MTT assay. In kind it is functional, cell-based. Particulars: PC-3, 72 h.
The nature of series [25]: Solubility in cell culture medium by HPLC analysis. Format: physicochemical.
The subject of series [26] is MGC-803. Description: Antitumor activity against human MGC-803 cells assessed as cell growth inhibition incubated for 72 hrs by MTT assay. In kind it is functional, cell-based. Particulars: MGC-803, 72 h.
Series [27] is described as follows: Toxicity in mouse assessed as increase in blood creatinine level at 5 mg/kg. In kind it is organism-based. Particulars: in vivo.
Series [28] in a line: Toxicity in mouse assessed as increase in blood GGT level at 5 mg/kg. As to conditions: in vivo. In kind it is organism-based.
Series [29] relates to PC-3. Description: Antitumor activity against human PC-3 cells xenografted in NOD-SCID mouse model assessed as tumor growth inhibition at 5 mg/kg, ip administered once every 3 days for 21 days relative to control. Format: functional. Particulars: PC-3, 504 h, time 21 day, read-out: TGI.
Series [30] is described as follows: Toxicity in mouse assessed as increase in blood total bilirubin level at 5 mg/kg. In kind it is organism-based. As to conditions: in vivo.
Series [31] is described as follows: Toxicity in mouse assessed as decrease in total protein level at 5 mg/kg. Particulars: in vivo. Format: organism-based.
A short description of series [32]: Toxicity in mouse assessed as increase in blood glutamic pyruvic transaminase level at 5 mg/kg. Format: organism-based. As to conditions: in vivo.
A short description of series [33]: Toxicity in mouse assessed as increase in blood BUN level at 5 mg/kg. In kind it is organism-based. As to conditions: in vivo.
The nature of series [34]: Toxicity in mouse assessed as decrease in platelet level at 5 mg/kg. In kind it is organism-based. Particulars: in vivo.

In brackets after ≈: the same amount, converted by molar mass. Activity calls are given as the source filed them. The rule behind the calls is not given here.

T1 sequence (P61024 whole entry): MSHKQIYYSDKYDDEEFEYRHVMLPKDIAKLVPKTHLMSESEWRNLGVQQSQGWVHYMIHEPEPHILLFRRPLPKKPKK
T1 sequence (Q13309 whole entry): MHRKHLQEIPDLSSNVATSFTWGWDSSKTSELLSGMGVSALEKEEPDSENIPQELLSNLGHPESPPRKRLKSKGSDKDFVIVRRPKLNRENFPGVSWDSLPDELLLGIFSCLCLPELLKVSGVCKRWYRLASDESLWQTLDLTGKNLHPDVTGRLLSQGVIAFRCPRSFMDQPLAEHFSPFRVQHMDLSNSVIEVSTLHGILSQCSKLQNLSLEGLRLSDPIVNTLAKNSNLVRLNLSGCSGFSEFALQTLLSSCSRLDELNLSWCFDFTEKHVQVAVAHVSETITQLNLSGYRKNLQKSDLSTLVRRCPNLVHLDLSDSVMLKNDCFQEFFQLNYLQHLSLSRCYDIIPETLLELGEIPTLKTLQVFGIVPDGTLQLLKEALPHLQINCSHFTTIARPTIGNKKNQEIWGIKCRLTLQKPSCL
T1 sequence (P63208 whole entry, further chain): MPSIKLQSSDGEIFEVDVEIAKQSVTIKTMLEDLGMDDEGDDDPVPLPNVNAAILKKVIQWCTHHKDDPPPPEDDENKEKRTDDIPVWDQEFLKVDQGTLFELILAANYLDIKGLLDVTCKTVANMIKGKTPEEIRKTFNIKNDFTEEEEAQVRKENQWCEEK

By IC50 is commonly meant the concentration that inhibits the measured activity by half. The compound `O=C(OC12CC3CC(CC(C3)C1)C2)c1ccc(NCc2cc(O)ccc2O)cc1` had an IC50 in [1] of 36.6 µM.

For `CC(C)N(CCCCOCC(=O)NS(C)(=O)=O)c1cnc(-c2ccccc2)c(-c2ccccc2)n1` [SELEXIPAG], the result in the series on PC-3 [2], in the series on MGC-803 [3], in the series with MGC-803 [14], in the series on PC-3 [15], with PC-3 [16] and with MGC-803 [17] was Active. This compound also came in with an IC50 in series [4] of 42.8 µM. Moreover, the Activity in the series with PC-3 [5] is 34.85%; in the series on PC-3 [6], 0.57%; in the series with PC-3 [7] it was 44.88%; in the series with MGC-803 [8], 0.44%; in the series with PC-3 [9], 18.81%; in the series with PC-3 [12], 4.54%. Further, the Activity turned out to be 21.27% in the series with MGC-803 [13]; 49.75% with MGC-803 [18]; 27.3% in the series with MGC-803 [19]; 1.21% in the series on MGC-803 [20]; 1.58% with MGC-803 [21]; 2.22% in the series on PC-3 [22]. Besides, the viability at 20 µM in the series on MGC-803 [10] is 96.8%; in the series with PC-3 [11], 92.7%.

What is called solubility is how much of the substance goes into solution per volume. With `O=C(NCC1CCN(c2cnc(-c3ccccc3)c(-c3ccccc3)n2)CC1)c1ccccc1`, the half-maximal inhibitory concentration (IC50) was more than 100 µM with NCI-H1299; 2.4 µM in [4]; 81.1 µM in series [23]; more than 100 µM in the series on MCF7; 70.9 µM with PC-3 [24]; more than 100 µM in the series on MGC-803 [26]. For the same compound, the concentration in solution in [25] (solubility) came to 0.08 µg/mL (≈ 0.178 µM).

`CC(C)(C)OC(=O)N1CCN(c2cnc(-c3ccccc3)c(-c3ccccc3)n2)CC1`: the IC50 with NCI-H1299 is more than 100 µM; in series [4], 1.7 µM; in [23], 52.3 µM; in the series with MCF7, 42.1 µM; in the series with PC-3 [24] it was 96.5 µM; with MGC-803 [26] it was 46.9 µM. In series [25], the solubility came to 0.13 µg/mL (≈ 0.312 µM).

Take `CC(C)(C)C(=O)NCC1CCN(c2cnc(-c3ccc(S(C)(=O)=O)cc3)c(-c3ccccc3)n2)CC1`: the IC50 in the series with NCI-H1299 was 50.8 µM; in [4], 2.7 µM; in [23] it was 88.2 µM; in the series on MCF7 it was 65.6 µM; in the series with PC-3 [24] it was 63.7 µM; in the series with MGC-803 [26], 87.2 µM. The compound also came in with a solubility in [25] of 0.19 µg/mL (≈ 0.375 µM).

As for `CC(=O)O[C@H]1C(=O)[C@@]2(C)[C@H]([C@H](OC(=O)c3ccccc3)[C@]3(O)C[C@H](OC(=O)[C@H](O)[C@@H](NC(=O)c4ccccc4)c4ccccc4)C(C)=C1C3(C)C)[C@]1(OC(C)=O)CO[C@@H]1C[C@@H]2O` [PACLITAXEL], the Activity result in [27], in [28], in [30], in series [31], in [32] and in [33] was “Toxic” each time. The Activity result in [34] is listed as “Toxic”. In addition, in the series with PC-3 [29], the inhibition in vivo at 5 mg/kg is 75.8%.

For `CC(C)(C)OC(=O)NCC1CCN(c2cnc(-c3ccccc3)c(-c3ccccc3)n2)CC1`, the IC50 in the series with NCI-H1299 worked out at 41.6 µM; in series [4] it was 2.3 µM; in series [23], 45.6 µM; with MCF7, 18 µM; with PC-3 [24], 11.7 µM; in the series with MGC-803 [26], 23.6 µM. Also, the concentration in solution in series [25] (solubility) came to 0.51 µg/mL (≈ 1.15 µM).

Consider `O=C(NC1CCN(c2cnc(-c3ccccc3)c(-c3ccccc3)n2)CC1)c1ccccc1`, for which the IC50 is more than 100 µM with NCI-H1299; more than 100 µM in [23]; 25.1 µM in the series on MCF7; more than 100 µM with PC-3 [24]; 41.3 µM in the series with MGC-803 [26]. This compound had a solubility in series [25] of 0.1 µg/mL (≈ 0.23 µM).

Take `CCC(=O)NCC1CCN(c2cnc(-c3ccccc3)c(-c3ccccc3)n2)CC1`: the IC50 worked out at 68.3 µM with NCI-H1299; 2.8 µM in series [4]; 52.6 µM in series [23]; 58.1 µM in the series with MCF7; 22.1 µM in the series on PC-3 [24]; 43.9 µM in the series with MGC-803 [26]. In series [25], this compound had a solubility of 0.57 µg/mL (≈ 1.42 µM).

Source of the values: ChEMBL document CHEMBL5338791, “Discovery of Novel 1,3-Diphenylpyrazine Derivatives as Potent S-Phase Kinase-Associated Protein 2 (Skp2) Inhibitors for the Treatment of Cancer” (J Med Chem, 2023).
